pIC50, pKi: −log10 of the molar value.
Assays:
[1] = target: T1, Mitogen-activated protein kinase kinase kinase kinase 1 (Homo sapiens, UniProt Q92918); assay: Binding affinity to recombinant human HPK1 (1 to 346 residues) expressed sf9 cells incubated for 1 hr by LanthaScreen assay
[2] = Intrinsic clearance in human liver microsomes at 1 uM and measured upto 30 mins in presence of NADPH by LC-MS analysis; format: ADME, Microsome; conditions: read-out: CLH (converted)
[3] = Permeability across apical to basolateral side in human Caco2 cells at 50 uM and measured after 120 mins by LC-MS analysis; format: ADME, cell-based; conditions: Caco-2, read-out: permeability
[4] = target: T1, Mitogen-activated protein kinase kinase kinase kinase 1; assay: Inhibition of human HPK1 in human Jurkat cells assessed as reduction in SLP76 phosphorylation incubated for 1 hr by HTRF assay; format: cell-based
[5] = target: T2, Cytochrome P450 3A4 (Homo sapiens, UniProt P08684); assay: Inhibition of CYP3A4 in human liver microsomes using midazolam as substrate by LC-MS analysis; format: ADME, Microsome
[6] = target: Mast/stem cell growth factor receptor Kit (Homo sapiens, UniProt P10721); assay: Inhibition of KIT (unknown origin) in presence of ATP
[7] = target: T2, Cytochrome P450 3A4; assay: Inhibition of CYP3A4 in human liver microsomes using testosterone as substrate by LC-MS analysis; format: ADME, Microsome
[8] = target: T3, Receptor-type tyrosine-protein kinase FLT3 (Homo sapiens, UniProt P36888); assay: Inhibition of FLT3 (unknown origin) in presence of ATP
T3 sequence (P36888 whole entry): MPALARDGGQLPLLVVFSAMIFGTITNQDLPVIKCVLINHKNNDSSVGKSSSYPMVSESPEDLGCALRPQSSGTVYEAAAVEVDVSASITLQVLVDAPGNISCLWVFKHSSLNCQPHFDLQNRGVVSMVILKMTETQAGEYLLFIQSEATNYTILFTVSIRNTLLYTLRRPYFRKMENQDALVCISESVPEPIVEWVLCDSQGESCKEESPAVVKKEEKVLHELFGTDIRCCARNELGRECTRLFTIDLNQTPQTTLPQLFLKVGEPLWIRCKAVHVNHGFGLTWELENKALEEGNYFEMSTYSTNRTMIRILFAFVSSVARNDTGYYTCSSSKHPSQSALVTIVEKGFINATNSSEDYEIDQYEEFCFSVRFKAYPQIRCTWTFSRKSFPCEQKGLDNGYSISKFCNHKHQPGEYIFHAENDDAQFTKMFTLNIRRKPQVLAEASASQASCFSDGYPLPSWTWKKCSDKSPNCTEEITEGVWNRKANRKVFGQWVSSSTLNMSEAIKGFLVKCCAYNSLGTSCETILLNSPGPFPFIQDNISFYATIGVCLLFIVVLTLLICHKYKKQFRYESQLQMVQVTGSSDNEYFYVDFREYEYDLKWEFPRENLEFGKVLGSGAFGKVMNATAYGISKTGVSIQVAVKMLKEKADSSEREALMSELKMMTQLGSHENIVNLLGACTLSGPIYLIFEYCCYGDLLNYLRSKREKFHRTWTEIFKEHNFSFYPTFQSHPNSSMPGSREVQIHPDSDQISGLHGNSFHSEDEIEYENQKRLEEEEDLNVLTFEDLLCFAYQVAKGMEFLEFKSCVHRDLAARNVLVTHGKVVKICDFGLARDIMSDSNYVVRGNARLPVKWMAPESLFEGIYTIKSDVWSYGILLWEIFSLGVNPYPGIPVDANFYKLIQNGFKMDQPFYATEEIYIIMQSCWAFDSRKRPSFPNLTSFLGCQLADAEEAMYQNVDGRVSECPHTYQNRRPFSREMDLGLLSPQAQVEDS

[9] = AUC in cynomolgus monkey at 3 mg/kg, po and measured upto 24 hrs by LC-MS/MS analysis; format: ADME, organism-based, Macaca fascicularis; parameters: dose 3 mg/kg, time < 24 hrs, route po; conditions: in vivo
[10] = Oral bioavailability in cynomolgus monkey at 3 mg/kg and measured upto 24 hrs by LC-MS/MS analysis; format: ADME, organism-based, Macaca fascicularis; conditions: in vivo
[11] = Clearance in Sprague-Dawley rat at 1.5 mg/kg, iv and measured upto 24 hrs by LC-MS/MS analysis; format: ADME, organism-based; conditions: in vivo
[12] = Fraction unbound in human plasma by LC-MS/MS analysis; format: ADME, cell-free
[13] = AUC in Sprague-Dawley rat at 3 mg/kg, po and measured upto 24 hrs by LC-MS/MS analysis; format: ADME, organism-based; parameters: dose 3 mg/kg, time < 24 hrs, route po; conditions: in vivo
[14] = Clearance in cynomolgus monkey at 1 mg/kg, iv and measured upto 24 hrs by LC-MS/MS analysis; format: ADME, organism-based, Macaca fascicularis; conditions: in vivo
[15] = Half life in cynomolgus monkey at 1 mg/kg, iv and measured upto 24 hrs by LC-MS/MS analysis; format: ADME, organism-based, Macaca fascicularis; conditions: in vivo
[16] = Volume of distribution at steady state in cynomolgus monkey at 1 mg/kg, iv and measured upto 24 hrs by LC-MS/MS analysis; format: ADME, organism-based, Macaca fascicularis; conditions: in vivo
[17] = target: Cytochrome P450 2C19 (Homo sapiens, UniProt P33261); assay: Time dependent inhibition of CYP2C19 in human liver microsomes using S mephenytoin as substrate by LC-MS analysis; format: ADME, Microsome; conditions: TDE = time-dependent effect
Sequence of Cytochrome P450 2C19 (P33261 whole entry): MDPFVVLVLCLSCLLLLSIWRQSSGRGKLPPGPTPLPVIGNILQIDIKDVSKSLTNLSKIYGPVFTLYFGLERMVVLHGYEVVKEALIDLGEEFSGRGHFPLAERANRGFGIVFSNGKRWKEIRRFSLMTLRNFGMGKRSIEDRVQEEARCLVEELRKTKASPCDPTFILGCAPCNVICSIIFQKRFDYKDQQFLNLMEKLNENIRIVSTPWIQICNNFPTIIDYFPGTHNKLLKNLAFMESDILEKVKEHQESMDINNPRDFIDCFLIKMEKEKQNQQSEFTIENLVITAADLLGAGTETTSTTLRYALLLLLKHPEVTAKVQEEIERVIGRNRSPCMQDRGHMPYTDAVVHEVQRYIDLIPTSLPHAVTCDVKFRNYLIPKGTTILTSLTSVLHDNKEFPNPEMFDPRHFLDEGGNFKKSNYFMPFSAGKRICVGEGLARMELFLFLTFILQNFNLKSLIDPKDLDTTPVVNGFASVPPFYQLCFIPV

Sequence of Mast/stem cell growth factor receptor Kit (P10721 whole entry): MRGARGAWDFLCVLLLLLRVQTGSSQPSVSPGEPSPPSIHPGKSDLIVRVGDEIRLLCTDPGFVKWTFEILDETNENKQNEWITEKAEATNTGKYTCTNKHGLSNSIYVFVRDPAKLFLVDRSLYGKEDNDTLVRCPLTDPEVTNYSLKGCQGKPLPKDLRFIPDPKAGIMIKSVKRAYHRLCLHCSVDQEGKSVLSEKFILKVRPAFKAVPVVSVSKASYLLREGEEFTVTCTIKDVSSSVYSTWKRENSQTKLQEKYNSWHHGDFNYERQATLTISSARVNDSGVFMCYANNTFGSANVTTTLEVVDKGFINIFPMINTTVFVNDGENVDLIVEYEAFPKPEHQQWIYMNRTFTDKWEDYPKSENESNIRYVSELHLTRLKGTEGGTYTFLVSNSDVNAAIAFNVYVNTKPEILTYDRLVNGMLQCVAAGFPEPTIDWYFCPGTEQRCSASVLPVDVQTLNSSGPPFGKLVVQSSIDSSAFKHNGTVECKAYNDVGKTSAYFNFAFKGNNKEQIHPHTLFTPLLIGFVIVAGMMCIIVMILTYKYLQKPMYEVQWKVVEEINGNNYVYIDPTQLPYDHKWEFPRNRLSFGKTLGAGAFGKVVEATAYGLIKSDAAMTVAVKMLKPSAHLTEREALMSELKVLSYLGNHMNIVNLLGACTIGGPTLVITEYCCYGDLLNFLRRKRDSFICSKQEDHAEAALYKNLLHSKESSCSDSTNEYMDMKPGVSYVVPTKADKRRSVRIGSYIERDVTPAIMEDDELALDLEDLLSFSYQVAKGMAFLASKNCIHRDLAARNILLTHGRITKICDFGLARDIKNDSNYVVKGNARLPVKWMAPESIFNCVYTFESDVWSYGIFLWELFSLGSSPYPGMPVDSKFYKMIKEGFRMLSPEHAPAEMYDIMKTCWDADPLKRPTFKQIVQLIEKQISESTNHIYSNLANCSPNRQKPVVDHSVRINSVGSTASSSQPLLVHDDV
T1 sequence (Q92918 whole entry, the tested form may be a part): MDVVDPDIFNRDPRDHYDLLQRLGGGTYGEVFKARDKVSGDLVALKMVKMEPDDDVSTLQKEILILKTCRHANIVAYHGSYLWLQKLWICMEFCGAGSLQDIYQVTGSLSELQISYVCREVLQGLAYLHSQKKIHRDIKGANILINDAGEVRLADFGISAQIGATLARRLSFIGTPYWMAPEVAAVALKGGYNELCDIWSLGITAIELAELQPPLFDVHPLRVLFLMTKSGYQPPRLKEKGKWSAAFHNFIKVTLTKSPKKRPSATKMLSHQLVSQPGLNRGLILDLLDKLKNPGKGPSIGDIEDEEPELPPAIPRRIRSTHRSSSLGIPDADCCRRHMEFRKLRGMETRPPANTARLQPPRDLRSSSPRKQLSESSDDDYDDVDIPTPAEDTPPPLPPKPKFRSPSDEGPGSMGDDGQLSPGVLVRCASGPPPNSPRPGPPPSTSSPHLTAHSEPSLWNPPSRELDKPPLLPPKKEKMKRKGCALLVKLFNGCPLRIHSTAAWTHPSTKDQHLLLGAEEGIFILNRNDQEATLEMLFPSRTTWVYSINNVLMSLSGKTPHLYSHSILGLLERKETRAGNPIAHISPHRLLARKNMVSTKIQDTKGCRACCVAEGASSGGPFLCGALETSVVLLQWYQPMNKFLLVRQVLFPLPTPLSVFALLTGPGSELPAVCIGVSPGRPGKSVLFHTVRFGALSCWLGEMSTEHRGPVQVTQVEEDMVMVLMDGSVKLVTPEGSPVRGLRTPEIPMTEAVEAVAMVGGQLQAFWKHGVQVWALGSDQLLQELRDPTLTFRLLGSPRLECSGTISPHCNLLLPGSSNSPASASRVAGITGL
T2 sequence (P08684 whole entry): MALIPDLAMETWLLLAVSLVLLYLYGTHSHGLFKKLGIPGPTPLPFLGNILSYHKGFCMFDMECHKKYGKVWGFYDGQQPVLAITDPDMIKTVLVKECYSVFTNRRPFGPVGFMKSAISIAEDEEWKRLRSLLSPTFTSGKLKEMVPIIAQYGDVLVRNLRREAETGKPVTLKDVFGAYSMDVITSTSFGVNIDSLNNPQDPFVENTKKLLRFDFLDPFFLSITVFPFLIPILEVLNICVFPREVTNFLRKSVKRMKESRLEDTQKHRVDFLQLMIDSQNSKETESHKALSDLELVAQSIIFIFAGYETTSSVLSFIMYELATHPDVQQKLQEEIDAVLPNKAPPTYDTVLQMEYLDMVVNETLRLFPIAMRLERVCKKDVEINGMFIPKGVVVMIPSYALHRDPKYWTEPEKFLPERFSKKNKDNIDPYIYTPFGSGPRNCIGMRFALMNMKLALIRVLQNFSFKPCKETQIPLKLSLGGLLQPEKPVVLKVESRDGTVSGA

SMILES | pKi [1] | CLint scaled at 1 µM [2] [mL/min/kg] | Papp A→B at 2 h, 50 µM [3] [×10⁻⁶ cm/s] | pIC50 [4] | other results
CN1CCN(c2ccc(Nc3ncc4ccc(-c5ccccc5)cc4n3)cc2)CC1 | 6.31 |  |  |  | 
CNCc1cc(F)c(-c2cc3c(-c4cnn(C)c4)n[nH]c3cn2)c(F)c1 | 8.27 | < 8.33 | 0.7 | 6.93 | pIC50 [5]: < 4.60; pIC50 [6]: 5.97; pIC50 [7]: < 4.60; pIC50 [8]: 6.44
CN1CCN(c2ccc(-c3n[nH]c4ccc(-c5ccccc5)nc34)cc2)CC1 | 6.65 |  |  |  | 
COc1cccc(F)c1-c1cc2c(-c3cnn(C)c3)n[nH]c2cn1 | 8.70 | 13.3 |  | 6.83 | 
CCNCc1cc(C)c(-c2cc3c(-c4cnn(C)c4)n[nH]c3cn2)c(F)c1 | 8.30 | < 8.33 | 1.4 | 6.86 | AUC at 24 h [9]: 1.64 µM·h; bioavailability [10]: 16%; clearance [11]: 102 mL/min/kg; fraction unbound [12]: 0.61; AUC at 24 h [13]: 0.761 µM·h; clearance [14]: 11 mL/min/kg; half-life [15]: 6.3 h; Vdss [16]: 3.9 L/kg
COc1cc(OC)c(F)c(-c2ncc3c(-c4ccc(N5CCN(C)CC5)cc4)n[nH]c3n2)c1F | 7.04 |  |  |  | 
CNC(C)c1cc(C)c(-c2cc3c(-c4cnn(C)c4)n[nH]c3cn2)c(F)c1 (configuration not stated) | 8.40 | < 8.33 | 0.2 | 7.03 | AUC at 24 h [9]: 3.93 µM·h; bioavailability [10]: 50%; clearance [11]: 93.3 mL/min/kg; fraction unbound [12]: 0.49; AUC at 24 h [13]: 0.799 µM·h; clearance [14]: 18.3 mL/min/kg; half-life [15]: 8.6 h; Vdss [16]: 7.6 L/kg
CN1CCN(c2ccc(-c3n[nH]c4ccc(-c5ccccc5F)nc34)cc2)CC1 | 7.55 |  |  | 5.56 | 
COc1cccc(F)c1-c1ccc2[nH]nc(-c3ccc(N4CCN(C)CC4)cc3)c2n1 | 8.52 | > 18.3 |  | 6.40 | 
CNCc1cc(F)c(-c2cc3c(-c4cnn(C)c4)n[nH]c3cn2)c(C(F)(F)F)c1 | 8.46 | < 8.33 | 1.6 | 6.89 | pIC50 [5]: < 4.60; pIC50 [6]: 5.70; inhibition (INH) [17]: Tde; pIC50 [7]: < 4.60; pIC50 [8]: 5.65
CNCc1cc(C)c(-c2cc3c(-c4cnn(C)c4)n[nH]c3cn2)c(F)c1 | 8.57 | < 8.33 | 1.1 | 7.04 | AUC at 24 h [9]: 0.759 µM·h; bioavailability [10]: 7%; clearance [11]: 118 mL/min/kg; fraction unbound [12]: 0.41; pIC50 [5]: < 4.60; pIC50 [6]: 5.13; inhibition (INH) [17]: Tde; AUC at 24 h [13]: 0.456 µM·h; clearance [14]: 20 mL/min/kg; half-life [15]: 5.5 h; Vdss [16]: 4.6 L/kg; pIC50 [7]: < 4.60; pIC50 [8]: 5.82
Cc1cc(C2CCCCN2)cc(F)c1-c1cc2c(-c3cnn(C)c3)n[nH]c2cn1 (configuration not stated) | 8.34 | < 8.33 | 0.4 | 6.86 | AUC at 24 h [9]: 7.84 µM·h; bioavailability [10]: 55%; clearance [11]: 80 mL/min/kg; fraction unbound [12]: 0.5; AUC at 24 h [13]: 1.46 µM·h; clearance [14]: 9 mL/min/kg; half-life [15]: 8.9 h; Vdss [16]: 4.6 L/kg

More lines, main results first:

pKi [1] | CLint scaled at 1 µM [2] [mL/min/kg] | Papp A→B at 2 h, 50 µM [3] [×10⁻⁶ cm/s] | pIC50 [4] | SMILES | other results
5.94 |  |  |  | CN1CCN(c2ccc(-c3n[nH]c4cc(-c5ccccc5)cnc34)cc2)CC1 | 
> 9.00 | 18.3 |  | 6.84 | COc1cccc(F)c1-c1cc2c(-c3ccc(N4CCN(C)CC4)cc3)n[nH]c2cn1 | 
8.60 | > 18.3 |  | 6.59 | COc1cccc(F)c1-c1ncc2[nH]nc(-c3ccc(N4CCN(C)CC4)cc3)c2n1 | 
7.92 | 11.7 |  | 6.19 | COc1cccc(F)c1-c1ncc2[nH]nc(-c3cnn(C)c3)c2n1 | 
8.52 | < 8.33 | 0.2 | 6.66 | CNCc1cc(F)c(-c2cc3c(-c4cnn(C)c4)n[nH]c3cn2)c(OC)c1 | pIC50 [6]: 6.07; pIC50 [8]: 6.59

Reference: ChEMBL document CHEMBL5223162, “Discovery of Pyrazolopyridine Derivatives as HPK1 Inhibitors” (ACS Med Chem Lett, 2023)
